Reference: US7781591B2, “Substituted 3-cyanopyridines as protein kinase inhibitors” (Wyeth LLC, priority 2006, dated 2010)

Biological target: T1, human PKCθ full length enzyme (Homo sapiens, UniProt Q04759)
T1 construct: human PKCθ full length enzyme (Panvera Cat# P2996); purchased Panvera P2996
Assay: PKCθ IMAP assay (fluorescence polarization)
Format: biochemical
Details: human PKCθ full length enzyme, IMAP; average value; read-out: IC50 PKCθ IMAP

T1 sequence (Q04759 whole entry): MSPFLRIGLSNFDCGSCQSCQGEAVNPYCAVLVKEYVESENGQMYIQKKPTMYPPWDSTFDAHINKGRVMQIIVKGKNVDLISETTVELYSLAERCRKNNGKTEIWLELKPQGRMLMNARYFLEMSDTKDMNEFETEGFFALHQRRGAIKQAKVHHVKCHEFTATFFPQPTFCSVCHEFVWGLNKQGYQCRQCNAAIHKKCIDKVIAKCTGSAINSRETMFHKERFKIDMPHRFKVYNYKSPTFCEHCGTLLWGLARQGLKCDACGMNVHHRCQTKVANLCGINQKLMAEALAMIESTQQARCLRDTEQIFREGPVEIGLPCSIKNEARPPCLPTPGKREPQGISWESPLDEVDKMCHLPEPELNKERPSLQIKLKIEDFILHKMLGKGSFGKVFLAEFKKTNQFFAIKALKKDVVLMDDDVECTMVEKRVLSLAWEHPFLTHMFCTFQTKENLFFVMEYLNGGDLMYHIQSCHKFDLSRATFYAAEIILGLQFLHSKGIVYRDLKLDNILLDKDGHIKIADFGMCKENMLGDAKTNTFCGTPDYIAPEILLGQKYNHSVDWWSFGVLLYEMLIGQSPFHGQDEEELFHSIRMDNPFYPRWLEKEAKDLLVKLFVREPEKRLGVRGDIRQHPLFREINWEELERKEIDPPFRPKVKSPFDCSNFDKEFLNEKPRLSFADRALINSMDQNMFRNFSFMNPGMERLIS

| SMILES | IC50 |
| --- | --- |
| COc1ccc(-c2cncc(C#N)c2Nc2cccc3[nH]ccc23)cc1 [Compound 323, 4-(1H-indol-4-ylamino)-5-(4-methoxyphenyl)nicotinonitrile] | 0.02 µM |
| CN(C)Cc1ccc(-c2cccc(-c3cncc(C#N)c3Nc3ccc4[nH]ccc4c3)c2)s1 [Compound 187, 5-(3-{5-[(dimethylamino)methyl]-2-thienyl}phenyl)-4-(1H-indol-5-ylamino)nicotinonitrile] | 0.11 µM |
| N#Cc1cncc(-c2cccc(-c3ccoc3)c2)c1Nc1ccc2[nH]ccc2c1 [Compound 142, 5-[3-(3-furyl)phenyl]-4-(1H-indol-5-ylamino)nicotinonitrile] | 0.12 µM |
| COc1ccc(-c2cncc(C#N)c2Nc2ccc3[nH]c(C)cc3c2)cc1OC [Compound 110, 5-(3,4-dimethoxyphenyl)-4-[(2-methyl-1H-indol-5-yl)amino]nicotinonitrile] | 0.065 µM |
| COc1ccc(-c2cncc(C#N)c2Nc2ccc3[nH]ccc3c2)cc1OCCN1CCOCC1 [Compound 230, 4-(1H-indol-5-ylamino)-5-[4-methoxy-3-(2-morpholin-4-ylethoxy)phenyl]nicotinonitrile] | 0.33 µM |
| Cc1c(Nc2c(C#N)cncc2-c2cccc(N(C)C)c2)ccc2[nH]ccc12 [Compound 575, 5-[3-(dimethylamino)phenyl]-4-[(4-methyl-1H-indol-5-yl)amino]nicotinonitrile] | 0.036 µM |
| CN(C)c1ccc(-c2cncc(C#N)c2Nc2cc(O)[nH]n2)cc1 [Compound 294, 5-[4-(dimethylamino)phenyl]-4-[(5-hydroxy-1H-pyrazol-3-yl)amino]nicotinonitrile] | 33.4 µM |
| Cc1c(Nc2c(C#N)cncc2-c2cc3ccccc3s2)ccc2[nH]ccc12 [Compound 514, 5-(1-benzothien-2-yl)-4-[(4-methyl-1H-indol-5-yl)amino]nicotinonitrile] | 0.023 µM |
| Cc1c(Nc2c(C#N)cncc2-c2cccc3cccnc23)ccc2[nH]ccc12 [Compound 590, 4-[(4-methyl-1H-indol-5-yl)amino]-5-quinolin-8-ylnicotinonitrile] | 0.972 µM |
| C#CCNCc1ccc2sc(-c3cncc(C#N)c3Nc3cccc4[nH]ccc34)cc2c1 [Compound 272, 4-(1H-indol-4-ylamino)-5-{5-[(prop-2-yn-1-ylamino)methyl]-1-benzothien-2-yl}nicotinonitrile] | 0.004 µM |
| N#Cc1cccc(-c2cccc(-c3cncc(C#N)c3Nc3ccc4[nH]ccc4c3)c2)c1 [Compound 132, 5-(3′-cyanobiphenyl-3-yl)-4-(1H-indol-5-ylamino)nicotinonitrile] | 0.11 µM |
| Cc1c(Nc2c(C#N)cncc2-c2cnc(C=O)n2C)ccc2[nH]ccc12 [Compound 537, 5-(2-formyl-1-methyl-1H-imidazol-5-yl)-4-[(4-methyl-1H-indol-5-yl)amino]nicotinonitrile] | 0.023 µM |
| COc1ccc(-c2cncc(C#N)c2Nc2cccc3[nH]ccc23)cc1OCCNCCCN1CCOCC1 [Compound 364, 4-(1H-indol-4-ylamino)-5-(4-methoxy-3-{2-[(3-morpholin-4-ylpropyl)amino]ethoxy}phenyl)nicotinonitrile] | 0.01 µM |
| N#Cc1cncc(-c2ccc3c(c2)OCO3)c1Nc1ccc2[nH]ccc2c1 [Compound 260, 5-(1,3-benzodioxol-5-yl)-4-(1H-indol-5-ylamino)nicotinonitrile] | 0.07 µM |
| COc1ccc(-c2cncc(C#N)c2N[C@H]2CC[C@@H](N)CC2)cc1OC [Compound 446, 4-[(cis-4-aminocyclohexyl)amino]-5-(3,4-dimethoxyphenyl)nicotinonitrile] | 4.88 µM |
| COc1cccc(-c2cncc(C#N)c2Nc2ccc3[nH]ncc3c2)c1 [Compound 295, 4-(1H-indazol-5-ylamino)-5-(3-methoxyphenyl)nicotinonitrile] | 2.95 µM |
| Cc1c(Nc2c(C#N)cncc2-c2ccc(CN3CCC(N(C)C)CC3)o2)ccc2[nH]ccc12 [Compound 436, 5-(5-{[4-(dimethylamino)piperidin-1-yl]methyl}-2-furyl)-4-[(4-methyl-1H-indol-5-yl)amino]nicotinonitrile] | 0.001 µM |
